Data taken from patent publication US11485735B2, “Selective CDK4/6 inhibitor and preparation thereof” (Wuxi Shuangliang Biotechnology Co., Ltd., priority 2019, dated 2022).
Counter-ions that a name gives are not always drawn.

Experiments:
[1] = system: human colon cancer COLO205 cells; experiment: Growth inhibition of tumor cells cultured in vitro, CellTiter-Glo, COLO205; format: cell-based; conditions: COLO205, 72 h, CellTiter-Glo
Text: (§1) Test drugs: Compounds of the present disclosure. Tumor cell strains: human colon cancer COLO205 cells and human breast cancer MCF-7 cells.
(§2) The growth inhibitory effects on human tumor cells COLO205 and MCF-7 cultured in vitro were observed by using a CellTiter-Glo Luminescent Cell Viability Assay Kit (Promega, Cat. No. G7572). Human tumor cells COLO205 and MCF-7 were both purchased from the American Type Culture Collection.
(§3) CellTiter-Glo Luminescent Cell Viability Assay: The previous cell culture medium was discarded, and the tumor cells were rinsed twice with PBS. An appropriate amount of trypsin (VWR, Cat. No. 0458-25G) was added to digest the tumor cells until most of the cells turned round and were detached from the wall. The trypsin digestion was terminated by adding an RPMI-1640 medium (COLO205; Gibco, Cat. No. A10491-01) containing 10% fetal bovine serum (Hyclone, Cat. No. SV30160.03) and MEM medium (MCF-7; Gibco, Cat. No. 10370-021) containing 10% fetal bovine serum and 0.01 mg/mL insulin, and the cells were gently pipetted with a pipette to completely suspend the tumor cells. After cell counting, a tumor cell suspension was prepared using a complete culture medium and the final concentration was 6.7×10^4 cells/mL. 90 μL of the tumor cell suspension was seeded in each well of a 96-well culture plate (6000 cells/well). The plate was then placed in an incubator with 5% CO2 at 37° C. and incubated for 24 h. A test drug was added by using an Agilent Bravo Automated Liquid Handling Platform, and 10 μL of the sample was added in each well. The assay was conducted in triplicate for each group. A compound of the present disclosure was dissolved in DMSO (BioRoYee, Cat. No. AF0231), and then the resulting solution was diluted to 10 μM/L, 3.33 μM/L, 1.11 μM/L, 0.37 μM/L, 0.123 μM/L, 0.041 μM/L, 0.0137 μM/L, 0.0046 μM/L, and 0.0015 μM/L with the culture medium. The concentration of DMSO was lower than 0.1%, and a culture medium containing 0.1% DMSO was added to the well which was set as a vehicle control group. The 96-well plate was placed in an incubator with 5% CO2 at 37° C. and incubated for 72 h. The 96-well plate to be tested was equilibrated at room temperature for 30 min, and 100 μL of Cell Titer-Glo reagent was added to each well. The contents of each well were mixed in an orbital shaker for 2 min to induce cell lysis, and the plate was incubated at room temperature for 10 min to achieve a constant value of fluorescent intensity. Finally, the chemiluminescence intensity was detected by TECAN M1000. Data were processed with Graphpad Prism 6.0 software. The growth curve of the cells was plotted. The cell growth inhibition rate of a drug was calculated, and the half maximal inhibitory concentration (IC50) of the drug was determined.

[2] = system: human breast cancer MCF-7 cells; experiment: Growth inhibition of tumor cells cultured in vitro, CellTiter-Glo, MCF-7; format: cell-based; conditions: for IC50: MCF-7, 72 h, CellTiter-Glo
Text: as §1, §2, §3

CDK9 = CDK9 (Homo sapiens, UniProt P50750); experiment: In-vitro kinase inhibitory activity, CDK9 (selectivity); format: biochemical; conditions: read-out: IC50 (half maximal inhibitory concentration, nM) CDK9
CDK6/CyclinD3 = biological target: T1, CDK6/CyclinD3 (Homo sapiens, UniProt Q00534); experiment: In-vitro kinase inhibitory activity, CDK6/CyclinD3 (Caliper EZ Reader II mobility shift); format: biochemical; conditions: CDK6/CyclinD3 20 nM, ATP 2 mM, Peptide 1 μM, 27° C., 120 min; read-out: IC50 (half maximal inhibitory concentration, nM) CDK6
T1 construct: purchased Wuxi Biortus Biosciences Co. Ltd
Description: The final volume for assay was 16 μL, and the reaction temperature was 27° C. […] The compound was dissolved in dimethyl sulfoxide (DMSO) to reach a concentration of 10 mM. […] 2 μL of the test compound solution was mixed with 5 μL of the kinase solution, and the mixture was incubated for 10 min. 5 μL of the mixed solution of the polypeptide substrate and ATP was then added. The mixture was incubated at 27° C. for 120 min, and then the reaction was terminated by adding 4 μL of EDTA with a concentration of 120 mM to each sample. […] Each assay was conducted in at least two replicates.
(§4) The final concentrations of the reagents in the assay were as follows. […] The reaction mixture was analyzed on a Caliper EZ Reader II by electrophoretic separation of the fluorescent substrate and the phosphorylated product. Data were calculated by using GraphPad Prism version 6.0 and IC50 values were obtained by adjusting the non-linear regression models of the dose response curves.

CDK4/CyclinD3 = biological target: T2, CDK4/CyclinD3 (Homo sapiens, UniProt P11802); experiment: In-vitro kinase inhibitory activity, CDK4/CyclinD3 (Caliper EZ Reader II mobility shift); format: biochemical; conditions: CDK4/CyclinD3 20 nM, ATP 2 mM, Peptide 1 μM, 27° C., 180 min; read-out: IC50 (half maximal inhibitory concentration, nM) CDK4
T2 construct: purchased Wuxi Biortus Biosciences Co. Ltd
Description: The final volume for assay was 16 μL, and the reaction temperature was 27° C. CDK4/CyclinD3 was produced by Wuxi Biortus Biosciences Co. Ltd. The concentration of the kinase was determined by the results of the optimization experiment. The kinase was diluted with an assay buffer (50 mM Tris HCl pH 8.0, 0.01% Tween 20, 50 μg/mL BSA, and 5 mM MgCl2) to obtain a corresponding kinase solution (2.4× concentration). The compound was dissolved in dimethyl sulfoxide (DMSO) to reach a concentration of 10 mM. […] 2 μL of the test compound solution was mixed with 5 μL of the kinase solution, and the mixture was incubated for 10 min. 5 μL of the mixed solution of the polypeptide substrate and ATP was then added. The mixture was incubated at 27° C. for 180 min, and then the reaction was terminated by adding 4 μL of EDTA with a concentration of 120 mM to each sample. […] Each assay was conducted in at least two replicates.
as §4

T2 sequence (P11802 whole entry, species assumed): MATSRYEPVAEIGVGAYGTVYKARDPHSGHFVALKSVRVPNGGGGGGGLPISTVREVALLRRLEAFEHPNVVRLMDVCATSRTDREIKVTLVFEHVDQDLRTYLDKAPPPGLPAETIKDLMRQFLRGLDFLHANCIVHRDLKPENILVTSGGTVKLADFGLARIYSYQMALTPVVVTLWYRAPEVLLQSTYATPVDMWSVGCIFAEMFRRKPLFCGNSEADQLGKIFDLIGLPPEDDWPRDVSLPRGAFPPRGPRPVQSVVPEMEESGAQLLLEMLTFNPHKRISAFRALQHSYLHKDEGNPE
T2 sequence (P30281 whole entry partner, species assumed): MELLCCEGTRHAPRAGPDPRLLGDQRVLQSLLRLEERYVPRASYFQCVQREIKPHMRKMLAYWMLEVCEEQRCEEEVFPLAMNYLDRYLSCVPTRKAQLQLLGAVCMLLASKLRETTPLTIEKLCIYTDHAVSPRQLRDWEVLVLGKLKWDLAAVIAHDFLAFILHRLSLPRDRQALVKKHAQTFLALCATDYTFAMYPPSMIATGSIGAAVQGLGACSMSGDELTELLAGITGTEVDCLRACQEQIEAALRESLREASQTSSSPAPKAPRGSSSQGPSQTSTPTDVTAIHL
Sequence of CDK9 (P50750 whole entry, species assumed): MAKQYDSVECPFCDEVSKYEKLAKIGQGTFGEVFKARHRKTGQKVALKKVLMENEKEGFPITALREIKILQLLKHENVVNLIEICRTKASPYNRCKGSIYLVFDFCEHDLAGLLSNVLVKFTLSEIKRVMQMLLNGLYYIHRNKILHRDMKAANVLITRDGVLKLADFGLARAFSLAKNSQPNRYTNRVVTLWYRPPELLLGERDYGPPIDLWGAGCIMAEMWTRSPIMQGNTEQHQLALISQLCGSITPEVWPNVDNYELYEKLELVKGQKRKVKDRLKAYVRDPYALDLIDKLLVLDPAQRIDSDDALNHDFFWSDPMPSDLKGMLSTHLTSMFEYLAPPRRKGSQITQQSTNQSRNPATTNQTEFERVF
Sequence of CDK9 (O60563 whole entry partner, species assumed): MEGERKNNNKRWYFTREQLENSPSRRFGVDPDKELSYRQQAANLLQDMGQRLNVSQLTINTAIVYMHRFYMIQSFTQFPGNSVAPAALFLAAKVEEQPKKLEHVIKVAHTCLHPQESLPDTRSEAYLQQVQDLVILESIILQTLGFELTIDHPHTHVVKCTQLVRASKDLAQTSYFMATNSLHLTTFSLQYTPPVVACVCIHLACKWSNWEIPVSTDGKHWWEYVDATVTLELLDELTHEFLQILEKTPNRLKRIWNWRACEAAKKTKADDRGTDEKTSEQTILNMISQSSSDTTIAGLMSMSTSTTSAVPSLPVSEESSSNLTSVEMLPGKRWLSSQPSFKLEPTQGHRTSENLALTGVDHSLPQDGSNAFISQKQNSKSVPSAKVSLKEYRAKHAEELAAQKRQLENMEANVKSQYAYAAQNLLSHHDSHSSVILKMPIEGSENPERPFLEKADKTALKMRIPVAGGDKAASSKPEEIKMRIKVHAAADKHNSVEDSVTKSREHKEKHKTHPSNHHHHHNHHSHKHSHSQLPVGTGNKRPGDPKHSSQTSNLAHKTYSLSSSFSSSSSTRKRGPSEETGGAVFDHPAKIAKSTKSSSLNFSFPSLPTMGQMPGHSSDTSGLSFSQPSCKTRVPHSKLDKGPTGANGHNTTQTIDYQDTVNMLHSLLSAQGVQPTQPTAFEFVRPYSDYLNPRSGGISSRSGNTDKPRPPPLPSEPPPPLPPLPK
T1 sequence (Q00534 whole entry, species assumed): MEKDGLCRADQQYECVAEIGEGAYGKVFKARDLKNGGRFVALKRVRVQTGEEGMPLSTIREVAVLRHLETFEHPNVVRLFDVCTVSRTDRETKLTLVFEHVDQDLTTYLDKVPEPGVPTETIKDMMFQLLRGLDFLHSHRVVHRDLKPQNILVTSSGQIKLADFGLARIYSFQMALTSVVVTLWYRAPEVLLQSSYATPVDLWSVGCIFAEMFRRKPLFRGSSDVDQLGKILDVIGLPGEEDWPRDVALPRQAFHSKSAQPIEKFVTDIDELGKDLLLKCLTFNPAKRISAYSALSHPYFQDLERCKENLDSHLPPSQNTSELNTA
T1 sequence (P30281 whole entry partner, species assumed): as the sequence (P30281 whole entry partner, species assumed) above

SMILES	IC50 ([1]; Homo sapiens, COLO 205, 72 h)	IC50 ([2]; Homo sapiens, MCF7, 72 h)	IC50 (CDK9)	IC50 (CDK6/CyclinD3)	IC50 (CDK4/CyclinD3)	IC50 [1]	IC50 ([1]; dihydrochloride)	IC50 [2]	inhibitory effect on human breast cancer MCF-7 cells (in words) ([2]; summary of the table)
COc1c(N2CCN(CCN3CCN(c4ccc(Nc5ncc6c(C)c(C(C)=O)c(=O)n(C7CCCC7)c6n5)nc4)CC3)CC2)ccc2c1CN(C1CCC(=O)NC1=O)C2=O (centres unmarked) [Compound 18, 3-(5-(4-(2-(4-(6-((6-acetyl-8-cyclopentyl-5-methyl-7-oxo-7,8-dihydropyrido[2,3-d]pyrimidin-2-yl)amino)pyridin-3-yl)piperazin-1-yl)ethyl)piperazin-1-yl)-4-methoxy-1-oxoisoindolin-2-yl)piperidine-2,6-dione]		> 10000 nM	> 10000 nM	37.8 nM	99.5 nM	133 nM			
CN(C)C(=O)c1cc2cnc(Nc3ccc(N4CCN(CCN5CCC(CN6CCN(c7ccc8c(c7)CN([C@H]7CCC(=O)NC7=O)C8=O)CC6)CC5)CC4)cn3)nc2n1C1CCCC1 [Compound 29, (S)-7-cyclopentyl-2-((5-(4-(2-(4-((4-(2-(2,6-dioxopiperidin-3-yl)-1-oxoisoindolin-5-yl)piperazin-1-yl)methyl)piperidin-1-yl)ethyl)piperazin-1-yl)pyridin-2-yl)amino)-N,N-dimethyl-7H-pyrrolo[2,3-d]pyrimidin-6-amide trihydrochloride]		106 nM	3650 nM	42.1 nM	37.8 nM				
CC(=O)c1c(C)c2cnc(Nc3ccc(N4CCN(CCN5CCC(CN6CCN(c7c(F)cc8c(c7F)CN(C7CCC(=O)NC7=O)C8=O)CC6)CC5)CC4)cn3)nc2n(C2CCCC2)c1=O (centres unmarked) [Compound 34, 3-(5-(4-((1-(2-(4-(6-((6-acetyl-8-cyclopentyl-5-methyl-7-oxo-7,8-dihydropyrido[2,3-d]pyrimidin-2-yl)amino)pyridin-3-yl)piperazin-1-yl)ethyl)piperidin-4-yl)methyl)piperazin-1-yl)-4,6-difluoro-1-oxoisoindolin-2-yl)piperidine-2,6-dione trihydrochloride]	68.8 nM	442 nM	1560 nM	9.84 nM	17.6 nM				

Second part, led by results:

IC50 ([1]; Homo sapiens, COLO 205, 72 h)	IC50 ([2]; Homo sapiens, MCF7, 72 h)	IC50 (CDK9)	IC50 (CDK6/CyclinD3)	IC50 (CDK4/CyclinD3)	IC50 [1]	IC50 ([1]; dihydrochloride)	IC50 [2]	SMILES	inhibitory effect on human breast cancer MCF-7 cells (in words) ([2]; summary of the table)
66.9 nM	> 10000 nM	> 10000 nM	26.4 nM	60.1 nM				COc1cc(N2CCN(CCN3CCN(c4ccc(Nc5ncc6c(C)c(C(C)=O)c(=O)n(C7CCCC7)c6n5)nc4)CC3)CC2)cc2c1C(=O)N(C1CCC(=O)NC1=O)C2 (centres unmarked) [Compound 16, 3-(5-(4-(2-(4-(6-((6-acetyl-8-cyclopentyl-5-methyl-7-oxo-7,8-dihydropyrido[2,3-d]pyrimidin-2-yl)amino)pyridin-3-yl)piperazin-1-yl)ethyl)piperazin-1-yl)-7-methoxy-1-oxoisoindolin-2-yl)piperidine-2,6-dione]	
		5610 nM	20.5 nM	54.8 nM		43.2 nM	> 10000 nM	COc1c(N2CCN(CCN3CCN(c4ccc(Nc5ncc6c(C)c(C(C)=O)c(=O)n(C7CCCC7)c6n5)nc4)CC3)CC2)ccc2c1CN(C1CCC(=O)NC1=O)C2=O (centres unmarked) [Compound 19, 3-(5-(4-(2-(4-(6-((6-acetyl-8-cyclopentyl-5-methyl-7-oxo-7,8-dihydropyrido[2,3-d]pyrimidin-2-yl)amino)pyridin-3-yl)piperazin-1-yl)ethyl)piperazin-1-yl)-4-methoxy-1-oxoisoindolin-2-yl)piperidine-2,6-dione dihydrochloride]	
	71.6 nM	> 10000 nM	29.6 nM	45.4 nM				CC(=O)c1c(C)c2cnc(Nc3ccc(N4CCN(CCN5CCN(c6cc7c(cc6F)C(=O)N(C6CCC(=O)NC6=O)C7)CC5)CC4)cn3)nc2n(C2CCCC2)c1=O.Cl.Cl (centres unmarked) [Compound 27, 3-(5-(4-(2-(4-(6-((6-acetyl-8-cyclopentyl-5-methyl-7-oxo-7,8-dihydropyrido[2,3-d]pyrimidin-2-yl)amino)pyridin-3-yl)piperazin-1-yl)ethyl)piperazin-1-yl)-6-fluoro-1-oxoisoindolin-2-yl)piperidine-2,6-dione dihydrochloride]	relatively good inhibitory effects
